The values that follow come from patent publication US20220265606A1, “ANTICANCER AGENTS” (The Texas A&M University System, priority 2019, published 2022).

Data set [1] relates to NR4A2.
Protocol: (§2) Transactivation Assay. Cells (8×10^4) per well were plated on 12-well plates in DMEM/F-12 supplemented with 2.5% charcoal-stripped FBS and 0.22% sodium bicarbonate. After 24 h growth, various amounts of DNA [i.e., UASx5-Luc (400 ng), GAL4-Nurr1 (40 ng) and β-gal (40 ng)] were cotransfected into each well by Lipofectamine 2000 reagent (Invitrogen, Carlsbad, Calif.) according to the manufacturer's protocol. After 5-6 hr of transfection, cells were treated with plating media (as above) containing either solvent (DMSO) or the indicated concentration of compounds for 24 hr. Cells were then lysed using a freeze-thaw protocol and 30 μL of cell extract was used for luciferase and β-gal assays. LumiCount (Packard, Meriden, Conn.) was used to quantify luciferase and β-gal activities. Luciferase activity values were normalized against corresponding (3-gal activity values as well as protein concentrations determined by Lowry's Method.
Another data set deals with 15037 cells. In words: 3D tumor spheroid invasion assay. As to conditions: 10 μM, vs DMSO.
Data set [2] concerns U87-MG cells as xenografts. The data set is described as follows: Xenograft study. The format is in vivo, athymic nu/nu mice. How it is done:
Xenograft Study. Female athymic nu/nu mice (4-6 weeks old) were purchased from Harlan Laboratories (Houston, TX). U87-MG cells (1×10^6) were harvested in 100 μl of DMEM and suspended in ice-cold Matrigel (1:1 ratio) and s.c. injected to either side of the flank area of the mice. After one week of tumor cell inoculation, mice were divided into two groups of 5 animals each. The first group received 100 μL of vehicle (corn oil), and second group of animals received an injection of 30 mg/kg/day of C-DIM 12 in 100 μl volume of corn oil by i.p. for three weeks. All mice were weighed once a week over the course of treatment to monitor changes in body weight. Tumor volumes could not be determined over the period of treatment because xenografted tumors were relatively deep. After three weeks of treatment, mice were sacrificed and tumor weights were determined.

The target in data set [3] is NR4A2 ligand binding domain (LBD) (Homo sapiens, UniProt P43354). The data set is described as follows: Ligand-induced quenching of NR4A2 LBD tryptophan fluorescence. On the procedure: Quenching of NR4A1 Tryptophan Fluorescence by Direct Ligand Binding. Tryptophan fluorescence spectra were obtained as described herein. Briefly, histidine-tagged ligand binding domain (LBD) of NR4A1 at a final concentration of 0.5 μmol/L in 1.0 mL of phosphate-buffered saline (PBS, pH 7.4) was used for fluorescence measurements. The protein was incubated for 3 min at 25 °C in a temperature-controlled (Quantum Northwest TC125) fluorescence spectrophotometer (Varian Cary Eclipse). […] Ligand only fluorescence intensity at each ligand concentration was used to correct the NR4A1 tryptophan fluorescence intensity as described in the above references.
Accordingly, ligand binding assay for NR4A1 and NR4A2 which measures ligand-induced quenching of tryptophan fluorescence by the ligand were developed to further characterize activity with respect to NR4A1 and NR4A2. A tryptophane residue is located in the ligand binding domain (LBD) of both receptors and the LBD of the receptor is used in the binding assay.

The subject of data set [4] is glioblastoma cells. The data set is described as follows: Measurement of apoptosis (Annexin V staining). The format is cell-based, human. As to conditions: 24 hr. On the procedure:
Measurement of Apoptosis (Annexin V Staining). Cancer cells were seeded at density of 1.5×10^5 per ml in 6 well plates and treated with either vehicle (DMSO) or compounds for 24 hr.
(§1) Glioblastoma cells were treated with different concentrations of 4-Cl (FIG. 6A), 3-CF3-4-Cl (FIG. 6B), and 2-OH-4-Br (FIG. 6C) and effects on induction of Annexin V were determined as outlined herein. Glioblastoma cells were treated with different concentrations of NR4A2 antagonists and whole cell lysates were analyzed for markers of apoptosis by western blots.

The test system of the next data set is dopaminergic neurons. Conditions: in vivo, previous studies; cited from earlier work.
In data set [5] the test system is glioblastoma cells. The data set is described as follows: Western blot of apoptosis markers in whole cell lysates. Type of data set: cell-based, human. On the procedure: Western Blot Analysis. 17008, 15037, 14104s, 14015s, 15049, U87-MG, A172, T98G, and CCF-STTG1 cells were seeded at density of 1.5×10^5 per ml in 6 well plates and treated with various concentration of compounds and whole cell proteins were extracted using RIPA lysis buffer containing 10 mM Tris-HCl (pH 7.4), 150 mM NaCl, 1 mM ethylenediaminetetraacetic acid (EDTA), 1% Triton X-100 (w/v), 0.5% sodium deoxycholate and 0.1% sodium dodecylsulphate (SDS) with protease and phosphatase inhibitor cocktail. Protein concentrations were measured using Lowry's method and equal amounts of protein were separated in 10% and 15% SDS-PAGE and transferred to a Polyvinylidene difluoride (PVDF) membrane. PVDF membranes were incubated overnight at 4° C. with primary antibodies in 5% skimmed milk and incubated for 2-3 hr with secondary antibodies conjugated with horseradish peroxidase (HRP). Membranes were then exposed to HRP-substrate and immune reacted proteins were detected with chemiluminescence reagent.
as §1

Data set [6] deals with NR4A2. Conditions: Panc1 / pancreatic cancer cells.
Protocol: as §2
In data set [7] the test system is vasoactive intestinal peptide (VIP) in pancreatic cancer cells. Conditions: initial (background) work; cited from earlier work.
For data set [8] the following is noted: previous studies, cited from earlier work.
The subject of data set [9] is vasoactive intestinal peptide (VIP) gene expression in Panc28 cells. In words: VIP gene expression by quantitative PCR in Panc28 cells.
Protocol: (§3) The effects of bis-indole and quinoline derivatives on activation of the NR4A2 regulated genes vasoactive intestinal peptide (VIP) was investigated. […] Relative expression levels of VIP were determined by quantitative PCR analysis. Results are expressed as means±SD for at least six separate determinations for each treatment.
Data set [10] has as its system vasoactive intestinal peptide (VIP) gene expression in Panc1 cells. In words: VIP gene expression by quantitative PCR in Panc1 cells.
Protocol: as §3
The target in the next data set is T1, NR4A1 LBD (Homo sapiens, UniProt P22736).
T1 construct: histidine tag
The data set is described as follows: NR4A1/bisANS fluorescence binding. On the procedure: The binding affinity (Kd) and binding stoichiometry (Bmax) of NR4A1/bisANS were determined essentially as described in FEBS Journal, 2014, 281, 2266-2283. For NR4A1/bisANS the binding affinity (Kd) was determined to be […] and the binding stoichiometry (Bmax) was determined to be 0.80 mol bisANS/mol NR4A1. The ability of ligand to displace bisANS was analyzed essentially as described in FEBS Journal, 2014, 281, 2266-2283. Briefly, histidine-tagged NR4A1 LBD (final concentration=0.05 μmon PBS, pH 7.4) was incubated at 25° C. for 3 min in the presence of 5.0 μmol bisANS/L. The bisANS fluorescence spectrum was obtained utilizing a Varian Cary Eclipse fluorescence spectrophotometer with an excitation wavelength of 365 nm (excitation slit width=5 nm) and an emission wavelength range of 400-600 nm (emission slit width=5 nm). Ligand titration was accomplished as described above for direct ligand binding using a stock ligand concentration of 10 mmol ligand/L ethanol. Addition of ethanol only had no effect on NR4A1/bisANS fluorescence (data not shown). […] Ligand/bisANS fluorescence intensity at each ligand concentration was used to correct the NR4A1/bisANS/ligand fluorescence intensity as described in the above reference.

Where two headings read alike, the source gives them in different places.

Sequence of NR4A2 ligand binding domain (LBD) (P43354 360-595 limits assumed, species assumed): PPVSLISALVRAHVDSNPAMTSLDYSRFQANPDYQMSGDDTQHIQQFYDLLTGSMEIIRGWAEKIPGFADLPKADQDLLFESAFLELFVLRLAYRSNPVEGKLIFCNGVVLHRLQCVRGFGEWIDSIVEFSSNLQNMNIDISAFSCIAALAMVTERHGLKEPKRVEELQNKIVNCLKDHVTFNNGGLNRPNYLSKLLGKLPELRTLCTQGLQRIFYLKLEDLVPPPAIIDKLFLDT
T1 sequence (P22736 360-595 limits assumed, species assumed): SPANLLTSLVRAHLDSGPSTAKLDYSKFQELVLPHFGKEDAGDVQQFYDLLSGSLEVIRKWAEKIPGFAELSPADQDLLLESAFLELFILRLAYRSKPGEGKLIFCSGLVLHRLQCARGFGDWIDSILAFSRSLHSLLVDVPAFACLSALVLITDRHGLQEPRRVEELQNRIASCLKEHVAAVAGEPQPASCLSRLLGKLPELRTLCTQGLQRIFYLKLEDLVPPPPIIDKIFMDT
Protocol for 15037 cells: Three-Dimensional (3D) Tumor Spheroid Invasion Assay. The cells were suspended in the complete medium (2×10^4 cells/ml). […] The plate was transferred to the incubator for 1 hr and 100 μl of the complete media containing 3 times the desired final concentration of compounds was supplemented and then incubated for 3-5 days followed by fixation in 4% formaldehyde. Spheroid invasion was determined by measuring the cross-sectional areas of the spheroid center and the rim of invaded cells using ImageJ.

For the compound `Clc1ccc(C(c2c[nH]c3ccccc23)c2c[nH]c3ccccc23)cc1` [CDIM-4-Cl], in the data set on NR4A2 [1], the “NR4A2-dependent transactivation in GBM cells (FIGS. 4A-4C)” value was “inhibited NR4A2-dependent transactivation”. Besides, the Tumor spheroid invasion result in the data set on 15037 cells is reported as “inhibited tumor spheroid invasion”. The Tumor weight entry in [2] (30 mg/kg/day i.p. for three weeks, athymic nude mice bearing U87-MG xenograft) is given as “significantly decreased tumor weight”. Besides, the “Cleaved caspase 8 in tumors” value in data set [2] (30 mg/kg/day, western blot of tumor lysates vs vehicle controls) is “significant upregulation of cleaved caspase 8”. In data set [3], the “Binding to NR4A2 (quenching of LBD-Trp), in words” value (from here on “Binding to NR4A2”) is reported as “do not quench the LBD-Trp”. Moreover, the “Annexin V staining” value in the data set on glioblastoma cells [4] is on record as “induced Annexin V staining”. Further, the “MPTP-induced loss of dopaminergic neurons” value in the data set on dopaminergic neurons is “inhibited”. In addition, the “Cleavage of caspase 7, 8 and PARP” value in the data set on glioblastoma cells [5] was “cleaved caspase 7, 8 and PARP cleavage”. In the data set on NR4A2 [6], the NR4A2-dependent transactivation entry is recorded as “activated NR4A2-dependent transactivation”. The “Induction of VIP in pancreatic cancer cells” value in data set [7] is “induced vasoactive intestinal peptide (VIP)”. In addition, the “Crossing of the blood-brain barrier” value in [8] is “cross the blood-brain barrier”; in data set [8] (listed as DIM-C-pPhCl), “crosses the blood-brain barrier and accumulates in the brain”.

On to `FC(F)(F)c1cc(C(c2c[nH]c3ccccc23)c2c[nH]c3ccccc23)ccc1Cl` [Ligand 3-CF3-4-Cl], for which the “Annexin V staining” value in the data set on glioblastoma cells [4] is recorded as “induced Annexin V staining”. Besides, the “Cleavage of caspase 7, 8 and PARP” value in the data set on glioblastoma cells [5] is “cleaved caspase 7, 8 and PARP cleavage”. In addition, the NR4A2-dependent transactivation result in the data set with NR4A2 [6] is reported as “induced NR4A2-dependent transactivation”.

As for `Cn1cc(C(c2ccc(O)cc2)c2cn(C)c3ccccc23)c2ccccc21` [N—Me-4-OH], the “Induction of VIP, in words” value was “more potent inducer of VIP in Panc1 and Panc28 cells than either CQ or AQ” in data set [9]; “more potent inducer of VIP in Panc1 and Panc28 cells than either CQ or AQ” in [10]. Also, the NR4A2-dependent transactivation result in the data set on NR4A2 [6] is recorded as “induced NR4A2-dependent transactivation”.

Consider `Clc1cccc(C(c2c[nH]c3ccccc23)c2c[nH]c3ccccc23)c1` [CDIM-3-Cl], for which the “Binding to NR4A2” value in data set [3] is on record as “gave similar results”.

Take `Oc1cc(Br)ccc1C(c1c[nH]c2ccccc12)c1c[nH]c2ccccc12` [Ligand 2-OH-4-Br]: the “Annexin V staining” value in the data set on glioblastoma cells [4] is listed as “induced Annexin V staining”. Moreover, the “Cleavage of caspase 7, 8 and PARP” value in the data set on glioblastoma cells [5] was “cleaved caspase 7, 8 and PARP cleavage”. Besides, in data set [10] (bis-indole analogs 5, 10 and 15 μM, CQ 100, 150 and 200 μM, AQ 50, 75 and 100 μM), the “Induction of VIP expression” value is given as at most 330 fold. For the same compound, the NR4A2-dependent transactivation entry with NR4A2 [6] is reported as “induced NR4A2-dependent transactivation”.

Consider `Clc1ccccc1C(c1c[nH]c2ccccc12)c1c[nH]c2ccccc12` [CDIM-2-Cl], for which, in data set [3], the “Binding to NR4A2” value is given as “gave similar results”.

With `Brc1ccc(C(c2c[nH]c3ccccc23)c2c[nH]c3ccccc23)cc1` [CDIM-4-Br, 1-bis(3′indolyl)-1-(p-bromophenyl)methane], in data set [7], the “Induction of VIP in pancreatic cancer cells” value was “induced vasoactive intestinal peptide (VIP)”.

As for `O=S(=O)(O)c1cccc2c(-c3ccc(Nc4ccccc4)c4c(S(=O)(=O)O)cccc34)ccc(Nc3ccccc3)c12` [bisANS], the “NR4A1/bisANS binding stoichiometry (Bmax)” value at NR4A1 LBD came out at 0.80 mol bisANS/mol NR4A1.
